Measured values published in patent US12227509B2, “Dihydropyrazolopyrazinone derivative having MGAT2 inhibitory activity” (Shionogi & Co., Ltd., priority 2019, dated 2025).

The molecules below were run against recombinant human MGAT2 (Homo sapiens (Human), UniProt Q3SYC2) (assay: Measurement of human MGAT2 inhibitory activity). Settings: concentration exhibiting 50% enzyme inhibition; recombinant human MGAT2, 2-Oleoylglycerol/Oleoyl-CoA.
Type: biochemical
Protocol: A full-length human MGAT2 gene to which a Flag-tag had been added at the N-terminal was inserted into pFastBac (from Invitrogen). A recombinant baculovirus was produced in accordance with the protocol for a Bac-to-Bac baculovirus expression system (produced by Invitrogen), and Sf-9 cells were infected therewith. The cells were collected and sonicated, and then the membrane fraction was collected through centrifugation. Western blotting analysis with an anti-Flag antibody was performed for the membrane fraction to confirm expression, and the membrane fraction was used as a recombinant human MGAT2 enzyme solution.
Solutions of the compounds of the present invention in DMSO were each aliquoted into 0.2-μL portions in a 384-well polystyrene microplate produced by Corning Incorporated, and 5 μL of an enzyme solution prepared with an assay buffer (100 mmol/L phosphate buffer (pH 7.4) containing 2 mmol/L DTT) and 5 μL of a substrate solution (100 mmol/L phosphate buffer (pH 7.4), 30 μmol/L 2-Oleoylglycerol, 10 μmol/L Oleoyl-CoA) were added thereto, and the resultant was stirred and centrifuged, and incubated in a moist chamber at room temperature for 1 hour. After enzymatic reaction, 50 μL of a quenching solution (containing 0.2 μmol/L Diolein-d5, 0.4% formic acid, and 50% isopropanol) containing Internal Standard (IS) was added to terminate the reaction, and the resultant was sealed in a plate produced by Shimadzu GLC Ltd., and then stirred and centrifuged, and measurement was performed by using an electrospray ionization method with a RapidFire360 and Agilent 6550 Q-TOF mass spectrometer. Diolein as a reaction product (P) of 2-Oleoylglycerol as the substrate and an ammonium adduct ion of the IS were detected, and the peak intensity ratio, P/IS, was calculated from the peak heights to evaluate the inhibitory activity. Inhibitory activities with/without addition of enzyme were defined as Control (+)/Control (−), respectively, and the respective % inhibitions were defined as 0% inhibition and 100% inhibition. The inhibitory activity was calculated from formula below with TIBCO Spotfire (produced by TIBCO Software Inc.)
Inhibitory activity (%)=[1−{Sample−Control (−)}/{Control (+)−Control (−)}]*100 where Sample indicates a peak intensity ratio: P/IS, when the compound of the present invention was added.

Sequence of recombinant human MGAT2 (Q3SYC2 whole entry): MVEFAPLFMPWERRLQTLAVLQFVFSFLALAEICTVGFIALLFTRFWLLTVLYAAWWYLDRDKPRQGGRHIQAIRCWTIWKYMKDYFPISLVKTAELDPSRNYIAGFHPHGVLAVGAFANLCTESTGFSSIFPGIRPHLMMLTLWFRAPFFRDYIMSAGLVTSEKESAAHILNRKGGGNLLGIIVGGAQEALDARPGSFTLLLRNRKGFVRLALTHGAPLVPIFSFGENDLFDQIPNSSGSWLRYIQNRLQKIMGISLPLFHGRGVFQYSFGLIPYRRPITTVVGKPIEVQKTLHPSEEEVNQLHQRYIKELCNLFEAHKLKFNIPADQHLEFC

Row | IC50 | SMILES
1 | 6.43 nM | C[S@@](=N)(=O)CC(=O)Nc1c(-c2ccc(F)c(Cl)c2)nn2c1C(=O)N[C@@]1(CCc3cc(OCC(F)(F)F)ccc31)C2 (single isomer, unassigned) [Compound I-72]
2 | 1.71 nM | C[S@](=N)(=O)CC(=O)Nc1c(-c2cc(F)c(F)c(F)c2)nn2c1C(=O)N[C@@]1(CCc3cc(OCC(F)(F)F)ccc31)C2 (single isomer, unassigned) [Compound I-105]
3 | 4.95 nM | C[S@@](=N)(=O)CC(=O)Nc1c(-c2cc(F)c(F)c(F)c2)nn2c1C(=O)N[C@@]1(CCc3cc(OCC(F)(F)F)ccc31)C2 (single isomer, unassigned) [Compound I-106]
4 | 1.19 nM | C[S@](=N)(=O)CC(=O)Nc1c(-c2ccc(F)c(Cl)c2)nn2c1C(=O)N[C@@]1(CCc3cc(OCC(F)(F)F)ccc31)C2 (single isomer, unassigned) [Compound I-107]
5 | 14 nM | CS(=O)(=O)CC(=O)Nc1c(-c2ccccc2)nn2c1C(=O)N[C@@]1(CCc3cc(OCC(F)(F)F)ccc31)C2 [Compound I-1]
6 | 6.6 nM | CS(=O)(=O)CC(=O)Nc1c(-c2ccccc2)nn2c1C(=O)N[C@]1(CCc3cc(OCC(F)(F)F)ccc31)C2 [Compound I-2]
7 | 1.93 nM | CS(=O)(=O)CC(=O)Nc1c(-c2ccc(C#N)cn2)nn2c1C(=O)N[C@]1(CCc3cc(OCC(F)(F)F)ccc31)C2 [Compound I-4]
8 | 2.81 nM | Cc1ccc(-c2nn3c(c2NC(=O)CS(C)(=O)=O)C(=O)N[C@]2(CCc4cc(OCC(F)(F)F)ccc42)C3)nc1 [Compound I-5]
9 | 3.04 nM | CS(=O)(=O)CC(=O)Nc1c(-c2ccc(C#N)cn2)nn2c1C(=O)NC1(CN(c3ccc(C(F)(F)F)cc3)C1)C2 [Compound I-7]
10 | 1.02 nM | N#Cc1ccc(-c2nn3c(c2NC(=O)c2ccno2)C(=O)N[C@]2(CCc4cc(OCC(F)(F)F)ccc42)C3)nc1 [Compound I-8]
11 | 22.5 nM | N#Cc1ccc(-c2nn3c(c2NC(=O)CC(F)(F)F)C(=O)N[C@]2(CCc4cc(OCC(F)(F)F)ccc42)C3)nc1 [Compound I-9]
12 | 1.91 nM | N#Cc1ccc(-c2nn3c(c2NC(=O)C2CS(=O)(=O)C2)C(=O)N[C@]2(CCc4cc(OCC(F)(F)F)ccc42)C3)nc1 [Compound I-10]
13 | 1.08 nM | CNS(=O)(=O)CC(=O)Nc1c(-c2ccc(C#N)cn2)nn2c1C(=O)N[C@]1(CCc3cc(OCC(F)(F)F)ccc31)C2 [Compound I-11]
14 | 9.48 nM | N#Cc1ccc(-c2nn3c(c2NC(=O)COC(F)(F)F)C(=O)N[C@]2(CCc4cc(OCC(F)(F)F)ccc42)C3)nc1 [Compound I-12]
15 | 2.56 nM | N#Cc1ccc(-c2nn3c(c2NC(=O)C2CS(=O)(=O)C2)C(=O)N[C@@]2(CCc4cc(OCC(F)(F)F)ccc42)C3)nc1 [Compound I-15]
16 | 1.44 nM | CNS(=O)(=O)CC(=O)Nc1c(-c2ccc(C#N)cn2)nn2c1C(=O)N[C@@]1(CCc3cc(OCC(F)(F)F)ccc31)C2 [Compound I-16]
17 | 58 nM | N#Cc1ccc(-c2nn3c(c2NC(=O)COC(F)(F)F)C(=O)N[C@@]2(CCc4cc(OCC(F)(F)F)ccc42)C3)nc1 [Compound I-17]
18 | 3.6 nM | CS(=O)(=O)CC(=O)Nc1c(-c2ccccn2)nn2c1C(=O)N[C@]1(CCc3cc(OCC(F)(F)F)ccc31)C2 [Compound I-18]
19 | 5.19 nM | CS(=O)(=O)CC(=O)Nc1c(-c2ccccn2)nn2c1C(=O)N[C@@]1(CCc3cc(OCC(F)(F)F)ccc31)C2 [Compound I-19]
20 | 3.27 nM | Cc1cccc(-c2nn3c(c2NC(=O)CS(C)(=O)=O)C(=O)N[C@@]2(CCc4cc(OCC(F)(F)F)ccc42)C3)c1 [Compound I-21]
21 | 93.5 nM | Cc1ccccc1-c1nn2c(c1NC(=O)CS(C)(=O)=O)C(=O)N[C@@]1(CCc3cc(OCC(F)(F)F)ccc31)C2 [Compound I-22]
22 | 1.2 nM | CS(=O)(=O)CC(=O)Nc1c(-c2ccc(F)cc2)nn2c1C(=O)N[C@@]1(CCc3cc(OCC(F)(F)F)ccc31)C2 [Compound I-23]
23 | 1.37 nM | CS(=O)(=O)CC(=O)Nc1c(-c2ccc(C(F)F)cc2)nn2c1C(=O)N[C@@]1(CCc3cc(OCC(F)(F)F)ccc31)C2 [Compound I-24]
24 | 1.33 nM | CS(=O)(=O)CC(=O)Nc1c(-c2ccc(C(F)(F)F)cc2)nn2c1C(=O)N[C@@]1(CCc3cc(OCC(F)(F)F)ccc31)C2 [Compound I-25]

Row | IC50 | SMILES
25 | 20.1 nM | COc1ccc(-c2nn3c(c2NC(=O)CS(C)(=O)=O)C(=O)N[C@@]2(CCc4cc(OCC(F)(F)F)ccc42)C3)cc1 [Compound I-26]
26 | 7.01 nM | CS(=O)(=O)CC(=O)Nc1c(-c2ccc(OC(F)(F)F)cc2)nn2c1C(=O)N[C@@]1(CCc3cc(OCC(F)(F)F)ccc31)C2 [Compound I-27]
27 | 3.89 nM | CS(=O)(=O)CC(=O)Nc1c(-c2ccc(OC(F)F)cc2)nn2c1C(=O)N[C@@]1(CCc3cc(OCC(F)(F)F)ccc31)C2 [Compound I-28]
28 | 4.91 nM | CS(=O)(=O)CC(=O)Nc1c(-c2ccc(C3CC3)cc2)nn2c1C(=O)N[C@@]1(CCc3cc(OCC(F)(F)F)ccc31)C2 [Compound I-29]
29 | 193 nM | CS(=O)(=O)CC(=O)Nc1c(-c2ccc(OC3CC3)cc2)nn2c1C(=O)N[C@@]1(CCc3cc(OCC(F)(F)F)ccc31)C2 [Compound I-30]
30 | 2.23 nM | CS(=O)(=O)CC(=O)Nc1c(-c2ccc(C#N)cc2)nn2c1C(=O)N[C@@]1(CCc3cc(OCC(F)(F)F)ccc31)C2 [Compound I-31]
31 | 1.19 nM | Cc1cc(-c2nn3c(c2NC(=O)CS(C)(=O)=O)C(=O)N[C@@]2(CCc4cc(OCC(F)(F)F)ccc42)C3)ccc1F [Compound I-32]
32 | 1.36 nM | Cc1ccc(-c2nn3c(c2NC(=O)CS(C)(=O)=O)C(=O)N[C@@]2(CCc4cc(OCC(F)(F)F)ccc42)C3)cc1F [Compound I-34]
33 | 32.2 nM | Cc1cc(F)ccc1-c1nn2c(c1NC(=O)CS(C)(=O)=O)C(=O)N[C@@]1(CCc3cc(OCC(F)(F)F)ccc31)C2 [Compound I-35]
34 | 0.617 nM | CS(=O)(=O)CC(=O)Nc1c(-c2cc(F)c(F)c(F)c2)nn2c1C(=O)N[C@@]1(CCc3cc(OCC(F)(F)F)ccc31)C2 [Compound I-36]
35 | 21.2 nM | CC(C)(O)c1ccc(-c2nn3c(c2NC(=O)CS(C)(=O)=O)C(=O)N[C@@]2(CCc4cc(OCC(F)(F)F)ccc42)C3)cc1 [Compound I-37]
36 | 5.31 nM | Cc1ccc(-c2nn3c(c2NC(=O)c2ccno2)C(=O)N[C@]2(CCc4cc(OCC(F)(F)F)ccc42)C3)nc1 [Compound I-38]
37 | 248 nM | Cc1ccc(-c2nn3c(c2NC(=O)CC(F)(F)F)C(=O)N[C@]2(CCc4cc(OCC(F)(F)F)ccc42)C3)nc1 [Compound I-39]
38 | 7.33 nM | Cc1ccc(-c2nn3c(c2NC(=O)C2CS(=O)(=O)C2)C(=O)N[C@]2(CCc4cc(OCC(F)(F)F)ccc42)C3)nc1 [Compound I-40]
39 | 1.04 nM | CNS(=O)(=O)CC(=O)Nc1c(-c2ccc(C)cn2)nn2c1C(=O)N[C@]1(CCc3cc(OCC(F)(F)F)ccc31)C2 [Compound I-41]
40 | 11.3 nM | Cc1ccc(-c2nn3c(c2NC(=O)c2ccno2)C(=O)N[C@@]2(CCc4cc(OCC(F)(F)F)ccc42)C3)nc1 [Compound I-42]
41 | 368 nM | Cc1ccc(-c2nn3c(c2NC(=O)CC(F)(F)F)C(=O)N[C@@]2(CCc4cc(OCC(F)(F)F)ccc42)C3)nc1 [Compound I-43]
42 | 13.4 nM | Cc1ccc(-c2nn3c(c2NC(=O)C2CS(=O)(=O)C2)C(=O)N[C@@]2(CCc4cc(OCC(F)(F)F)ccc42)C3)nc1 [Compound I-44]
43 | 1.09 nM | CNS(=O)(=O)CC(=O)Nc1c(-c2ccc(C)cn2)nn2c1C(=O)N[C@@]1(CCc3cc(OCC(F)(F)F)ccc31)C2 [Compound I-45]
44 | 2.73 nM | CCCCCc1nn2c(c1NC(=O)CS(C)(=O)=O)C(=O)N[C@@]1(CCc3cc(OCC(F)(F)F)ccc31)C2 [Compound I-47]
45 | 419 nM | CS(=O)(=O)CC(=O)Nc1c(-c2ccc(S(C)(=O)=O)cc2)nn2c1C(=O)N[C@@]1(CCc3cc(OCC(F)(F)F)ccc31)C2 [Compound I-48]
46 | 4.79 nM | CC(C)c1ccc(-c2nn3c(c2NC(=O)CS(C)(=O)=O)C(=O)N[C@@]2(CCc4cc(OCC(F)(F)F)ccc42)C3)cc1 [Compound I-49]
47 | 2.53 nM | CS(=O)(=O)CC(=O)Nc1c(-c2cc(F)cc(F)c2)nn2c1C(=O)N[C@@]1(CCc3cc(OCC(F)(F)F)ccc31)C2 [Compound I-50]
48 | 1.32 nM | CS(=O)(=O)CC(=O)Nc1c(-c2ccc(C#N)c(F)c2)nn2c1C(=O)N[C@@]1(CCc3cc(OCC(F)(F)F)ccc31)C2 [Compound I-51]

Same assay, conditions: concentration exhibiting 50% enzyme inhibition; recombinant human MGAT2, 2-Oleoylglycerol/Oleoyl-CoA; listed as 1-62

Row | IC50 | SMILES
49 | 1.39 nM | CS(=O)(=O)CC(=O)Nc1c(CCCC(F)(F)F)nn2c1C(=O)NC1(CCc3cc(OCC(F)(F)F)ccc31)C2 (single isomer, unassigned) [Compound I-62]

Same assay, conditions: concentration exhibiting 50% enzyme inhibition; recombinant human MGAT2, 2-Oleoylglycerol/Oleoyl-CoA; listed as 1-63

Row | IC50 | SMILES
50 | 1.24 nM | CS(=O)(=O)CC(=O)Nc1c(CCCC(F)(F)F)nn2c1C(=O)NC1(CCc3cc(OCC(F)(F)F)ccc31)C2 (single isomer, unassigned) [Compound I-63]
